Read-outs that look alike come from different tables or passages of the source.
How the values were obtained:
Type in all cases: cell-based, human
[1] = tested on: AGS cells; assay: Apoptotic ratio by propidium iodide flow cytometry (AC50); details: Homo sapiens, read-out: Apoptosis-inducing AC50
Procedure, shortened: (§1)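 AC50 denotes the concentration that induces 50% apoptosis. It was derived from propidium iodide–DNA fluorescence measured by flow cytometry after ethanol fixation and RNase treatment. Cells were seeded at 2×10^5, grown 24 h, then exposed to test compounds for 24 h.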

[2] = tested on: COLO205 cells; assay: as above; details: Homo sapiens
Procedure, shortened: as §1

[3] = tested on: HL-60 cells; assay: as above; details: Homo sapiens
Procedure, shortened: as §1

[4] = tested on: AGS cells; assay: Cell cycle distribution by flow cytometry; details: 24 h, Table 11
Procedure, shortened: (§2)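 Human cancer cells (2×10^5 per dish) exposed 24 h to compound at 5–100 μM, or DMSO. Cells ethanol-fixed at −20° C overnight, RNase/Triton-treated at 37° C for 30 min, then stained with propidium iodide. DNA content read by FACScan flow cytometry to give phase distribution.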

[5] = tested on: COLO205 cells; assay: Cell cycle distribution by flow cytometry; details: COLO205 cells, 24 h, Table 12
Procedure, shortened: as §2

[6] = tested on: HT-29 cells; assay: Apoptotic ratio by propidium iodide flow cytometry (AC50); details: Homo sapiens, read-out: Apoptosis-inducing AC50
Procedure, shortened: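 HT-29 cells (2×10^5) were treated with compound for 24 h, then fixed in ice-cold ethanol overnight and treated with Triton X-100/RNase at 37 °C for 30 min. They were stained with propidium iodide (50 μg/mL solution) on ice for 30 min. The apoptotic fraction was measured from PI-DNA fluorescence by flow cytometry, and AC50 was reported.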

[7] = tested on: AGS cells; assay: Cell survival assay (antiproliferative IC50); details: Homo sapiens, read-out: Antiproliferative IC50
[8] = tested on: COLO205 cells; assay: Cell survival assay (antiproliferative IC50); details: Homo sapiens
[9] = tested on: HL-60 cells; assay: Cell survival assay (antiproliferative IC50); details: Homo sapiens
[10] = COLO 205, COLO205 cells, read-out: Apoptosis-inducing AC50
[11] = HL-60 cells, read-out: Apoptosis-inducing AC50
[12] = COLO 205, COLO205 cells, read-out: Antiproliferative IC50
[13] = HL-60 cells, read-out: Antiproliferative IC50

Structure (SMILES) | Cell Cycle Distribution G0/G1 ([4]; 5 μM) | Cell Cycle Distribution G2/M ([4]; 5 μM) | Cell Cycle Distribution S ([4]; 5 μM) | Cell Cycle Distribution G0/G1 ([4]; 10 μM) | Cell Cycle Distribution G2/M ([4]; 10 μM) | Cell Cycle Distribution S ([4]; 10 μM) | Cell Cycle Distribution G0/G1 ([4]; 25 μM) | Cell Cycle Distribution G2/M ([4]; 25 μM) | Cell Cycle Distribution S ([4]; 25 μM) | Cell Cycle Distribution G0/G1 ([4]; 50 μM) | Cell Cycle Distribution G2/M ([4]; 50 μM) | Cell Cycle Distribution S ([4]; 50 μM) | Cell Cycle Distribution G0/G1 ([4]; 100 μM) | Cell Cycle Distribution G2/M ([4]; 100 μM) | Cell Cycle Distribution S ([4]; 100 μM) | Cell Cycle Distribution G0/G1 ([5]; 5 μM) | Cell Cycle Distribution G2/M ([5]; 5 μM) | Cell Cycle Distribution S ([5]; 5 μM) | Cell Cycle Distribution G0/G1 ([5]; 10 μM) | Cell Cycle Distribution G2/M ([5]; 10 μM) | other results
COc1cc(-c2cc(=O)c3c(O)c(OC)c(OC)c(OC)c3o2)cc(OC)c1OC [E, 5-hydroxy-6,7,8,3′,4′,5′-hexamethoxyflavone] | 55.70 ± 0.14 | 15.88 ± 0.89 | 28.42 ± 0.75 | 56.96 ± 3.14 | 16.00 ± 0.55 | 27.05 ± 2.60 | 56.32 ± 2.62 | 14.40 ± 2.38 | 29.25 ± 0.18 | 54.53 ± 0.30 | 15.69 ± 1.41 | 29.79 ± 1.10 | 55.68 ± 0.46 | 13.51 ± 0.17 | 30.82 ± 0.29 | 67.66 ± 0.19 | 8.75 ± 0.17 | 23.60 ± 0.03 | 67.48 ± 0.59 | 8.29 ± 0.48 | AC50 ([1]; AGS cells): > 100 µM; AC50 [2, 10]: > 100 µM; AC50 [3, 11]: > 100 µM; Cell Cycle Distribution S ([5]; 10 μM): 24.24 ± 0.11; Cell Cycle Distribution G0/G1 ([5]; 25 μM): 67.40 ± 0.49; Cell Cycle Distribution G2/M ([5]; 25 μM): 7.59 ± 1.18; Cell Cycle Distribution S ([5]; 25 μM): 25.02 ± 0.70; Cell Cycle Distribution G0/G1 ([5]; 50 μM): 69.49 ± 2.62; Cell Cycle Distribution G2/M ([5]; 50 μM): 6.59 ± 0.82; Cell Cycle Distribution S ([5]; 50 μM): 23.93 ± 1.80; Cell Cycle Distribution G0/G1 ([5]; 100 μM): 69.99 ± 0.89; Cell Cycle Distribution G2/M ([5]; 100 μM): 5.52 ± 0.90; Cell Cycle Distribution S ([5]; 100 μM): 24.50 ± 0.00; AC50 [6]: > 100 µM; IC50 ([7]; AGS cells): > 100 µM; IC50 [8, 12]: > 100 µM; IC50 [9, 13]: > 100 µM
COc1cc(-c2cc(=O)c3c(OC)c(OC)c(OC)c(OC)c3o2)cc(OC)c1OC [F, 5,6,7,8,3′,4′,5′-heptamethoxyflavone, reference compound] | 58.22 ± 1.10 | 14.76 ± 0.94 | 27.02 ± 0.17 | 62.41 ± 6.13 | 14.56 ± 0.58 | 23.04 ± 5.55 | 62.24 ± 0.71 | 15.34 ± 1.30 | 22.57 ± 2.21 | 65.87 ± 0.93 | 13.05 ± 0.98 | 21.08 ± 1.90 | 64.22 ± 5.56 | 13.92 ± 1.06 | 21.86 ± 4.50 | 68.30 ± 1.36 | 8.71 ± 0.55 | 23.00 ± 0.80 | 71.96 ± 0.24 | 8.38 ± 0.43 | AC50 ([1]; AGS cells): > 100 µM; AC50 [2, 10]: > 100 µM; AC50 [3, 11]: > 100 µM; Cell Cycle Distribution S ([5]; 10 μM): 19.67 ± 0.67; Cell Cycle Distribution G0/G1 ([5]; 25 μM): 72.22 ± 0.54; Cell Cycle Distribution G2/M ([5]; 25 μM): 9.80 ± 0.20; Cell Cycle Distribution S ([5]; 25 μM): 17.98 ± 0.74; Cell Cycle Distribution G0/G1 ([5]; 50 μM): 76.39 ± 0.85; Cell Cycle Distribution G2/M ([5]; 50 μM): 8.02 ± 0.50; Cell Cycle Distribution S ([5]; 50 μM): 15.60 ± 1.35; Cell Cycle Distribution G0/G1 ([5]; 100 μM): 78.64 ± 0.34; Cell Cycle Distribution G2/M ([5]; 100 μM): 8.65 ± 0.19; Cell Cycle Distribution S ([5]; 100 μM): 12.71 ± 0.52; AC50 [6]: > 100 µM; IC50 ([7]; AGS cells): > 100 µM; IC50 [8, 12]: 92.6 ± 15 µM; IC50 [9, 13]: 47 ± 4 µM
COc1c(OC)c(OC)c2c(=O)cc(-c3ccc(O)c(O)c3)oc2c1OC [H, 3′,4′-dihydroxy-5,6,7,8-tetramethoxyflavone] | 62.78 ± 2.93 | 16.57 ± 1.93 | 20.66 ± 1.00 | 61.72 ± 2.76 | 17.39 ± 2.76 | 20.89 ± 0.00 | 63.91 ± 0.92 | 16.82 ± 1.04 | 19.28 ± 0.12 | 63.96 ± 1.65 | 16.74 ± 2.15 | 19.31 ± 0.51 | 68.04 ± 1.34 | 22.69 ± 0.13 | 9.27 ± 1.46 | 67.26 ± 0.45 | 8.17 ± 0.60 | 24.58 ± 0.15 | 66.67 ± 0.16 | 6.18 ± 0.63 | AC50 ([1]; AGS): > 100 µM; AC50 ([2]; COLO 205, read-out: Apoptosis-inducing AC50): > 100 µM; AC50 ([3]; HL-60, read-out: Apoptosis-inducing AC50): > 100 µM; Cell Cycle Distribution S ([5]; 10 μM): 27.16 ± 0.46; Cell Cycle Distribution G0/G1 ([5]; 25 μM): 66.99 ± 1.32; Cell Cycle Distribution G2/M ([5]; 25 μM): 6.89 ± 0.21; Cell Cycle Distribution S ([5]; 25 μM): 26.13 ± 1.11; Cell Cycle Distribution G0/G1 ([5]; 50 μM): 64.49 ± 1.00; Cell Cycle Distribution G2/M ([5]; 50 μM): 8.94 ± 1.12; Cell Cycle Distribution S ([5]; 50 μM): 26.57 ± 2.12; Cell Cycle Distribution G0/G1 ([5]; 100 μM): 66.50 ± 0.06; Cell Cycle Distribution G2/M ([5]; 100 μM): 6.98 ± 0.02; Cell Cycle Distribution S ([5]; 100 μM): 26.53 ± 0.08; AC50 [6]: > 100 µM; IC50 ([7]; AGS): 69.3 ± 4.23 µM; IC50 ([8]; COLO 205, read-out: Antiproliferative IC50): 90.1 ± 11.9 µM; IC50 ([9]; HL-60, read-out: Antiproliferative IC50): 71.2 ± 1.93 µM

Source: patent publication US20140039044A1, “Hydroxylated Polymethoxyflavone Compositions” (WLLGEN, INC., priority 2006, published 2014)
